Laboratory results taken from PMC4624963, “Enzymatic Characterization of Recombinant Food Vacuole Plasmepsin 4 from the Rodent Malaria Parasite Plasmodium berghei” (PLoS ONE, 2015).
Like-named read-outs stand apart in the source and are kept apart here. Where a SMILES comes first, the peptide text is derived from it. [ ]: non-standard residue; d: D form. The star is where a group is joined. Sta = CC(C)C[C@H](N)[C@@H](O)CC(=O)O; Isovaleryl = CC(C)CC(=O)*

What was measured:
[1] = biological target: PoPM4; conditions: read-out: Dissociation Constant (K i) PoPM4; cited from earlier work
[2] = biological target: PmPM4; conditions: read-out: Dissociation Constant (K i) PmPM4; cited from earlier work
[3] = biological target: T1, PbPM4 (Plasmodium berghei, UniProt O76965); assay: Inhibition of mature PbPM4, dissociation constants (Ki) from initial cleavage velocities of a chromogenic peptide substrate; type: biochemical
Procedure: (§1) Chromogenic peptide substrates were dissolved in a solution containing 20% dimethyl sulfoxide (DMSO), 10% formic acid, and 70% distilled deionized water to generate stock solutions. Inhibitor stock solutions were prepared in 100% DMSO. The concentrations of the stock solutions were determined by amino acid analysis.
(§2) Kinetic assays were set up in 500 mM sodium citrate, pH 5.0 at 37°C with a 5-min pre-equilibrium time with buffer. To study kinetics of the zymogen form, assays were set up in 500 mM sodium citrate, pH 5.5 at 37°C with a 5-min pre-equilibrium time. All enzymatic reactions were carried out at 37°C.
(§3) Dissociation constants were determined as previously described.
(§4) The enzymes were prepared for kinetic assays: purified proPbPM4 was pre-incubated in 100 mM sodium citrate, pH 5.0, at 37°C for 5 min; purified mature PfPM1 was pre-incubated in 100 mM sodium citrate, pH 5.5, at 37°C for 3 min; all the other plasmepsins were pre-incubated in 100 mM sodium formate, pH 4.5, at 37°C for 5 min to convert zymogen to mature enzyme before the addition of substrates. Pre-incubation of hcatD was carried out in 200 mM sodium formate, pH 3.7, at 37°C for 5 min. Compound 1 was dissolved in 100% DMSO, and filtered through a 0.45 μm Costar cellulose acetate tube filter by centrifugation at 20,000 g, room temperature for 5 min to remove any particulate. The concentration of compound 1 was determined by amino acid analysis. Dissociation constants (Ki) were determined as described above.

[4] = biological target: PfPM1 (Plasmodium falciparum, UniProt P39898); assay: biochemical
Procedure: as §3
(§5) Besides PbPM4, the cloning, expression and purification of recombinant human FV plasmepsins, including PfPM1, 2 and 4, PoPM4, PvPM4 and PmPM4, and hcatD were performed according to experimental procedures described in previous reports. Briefly, genes encoding N-terminally truncated semi-pro-enzymes were cloned from genomic DNA, or intra-erythrocyte stage cDNA library of Plasmodium spp. (e.g., in the case of PfPM1), and inserted to pET expression vectors (EMD Millipore). Protein expression, inclusion body preparation and in vitro protein refolding were performed as described above for PbPM4. Proteins were purified using anion exchange chromatography.
as §4, with “Compound 1 was dissolved in 100% DMSO, and filtered through a 0.45 μm Costar cellulose acetate tube filter by centrifugation at 20,000 g, room temperature for 5 min to remove any particulate.” left out

[5] = biological target: PvPM4 (Plasmodium vivax, UniProt O60989); assay: biochemical
Procedure: as §3, §5
as §4, with “Compound 1 was dissolved in 100% DMSO, and filtered through a 0.45 μm Costar cellulose acetate tube filter by centrifugation at 20,000 g, room temperature for 5 min to remove any particulate.” left out

[6] = biological target: T2, human cathepsin D (hcatD) (Homo sapiens, UniProt P07339); assay: Inhibition of human cathepsin D, dissociation constants (Ki); type: biochemical; conditions: pre-incubated in 200 mM sodium formate pH 3.7, 37°C, 5 min; read-out: Dissociation Constant (K i) hCatD
T2 construct: made in house
Procedure: as §3
Proteins were purified using anion exchange chromatography.
Dissociation constants (Ki) were determined as described above.

[7] = biological target: T1, PbPM4; assay: Kinetic analysis of cleavage of chromogenic peptide substrates by mature PbPM4; type: biochemical; conditions: sodium citrate pH 5.0, 37°C
Procedure: as §1, §2
The substrate hydrolysis was analyzed by spectroscopy and defined as the decrease of the average absorbance between 284–324 nm. Pre-equilibrated enzyme was mixed with substrate at least six different concentrations (μM). The initial cleavage velocities (AU/sec) of these reactions were immediately measured on a Cary 50 Bio UV-Visible spectrophotometer. The initial cleavage rates (M/sec) were converted from the observed velocities (AU/sec) by dividing the observed velocities by the total absorbance changes upon complete enzymatic digestion of the substrate of known concentrations (i.e., AU/M).
The total concentration of active enzyme, [E]tot, was determined by titrating PbPM4 enzyme with the tight binding, competitive, aspartic proteinase inhibitor pepstatin A. A constant amount of pre-equilibrated enzyme was mixed either with 100 μM of the peptide substrate Lys-Pro-Ile-Leu-Phe*Nph-Arg-Leu or with both 100 μM of substrate and pepstatin A at a series of different concentrations. The initial cleavage rates of the substrate at different inhibitor concentrations were immediately measured afterwards using a Cary 50 Bio UV-Visible spectrophotometer.

T1 sequence (O76965 entry or part of it): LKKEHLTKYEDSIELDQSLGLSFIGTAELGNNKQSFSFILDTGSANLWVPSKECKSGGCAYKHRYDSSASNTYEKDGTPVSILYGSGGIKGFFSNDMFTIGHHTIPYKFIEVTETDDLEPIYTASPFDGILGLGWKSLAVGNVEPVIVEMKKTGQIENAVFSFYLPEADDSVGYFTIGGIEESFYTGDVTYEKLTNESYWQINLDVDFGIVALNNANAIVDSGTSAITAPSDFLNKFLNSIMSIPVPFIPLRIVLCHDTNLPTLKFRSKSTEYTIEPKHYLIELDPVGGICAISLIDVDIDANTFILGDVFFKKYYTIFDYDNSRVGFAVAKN
Chain of PvPM4 (O60989 122-450 limits assumed): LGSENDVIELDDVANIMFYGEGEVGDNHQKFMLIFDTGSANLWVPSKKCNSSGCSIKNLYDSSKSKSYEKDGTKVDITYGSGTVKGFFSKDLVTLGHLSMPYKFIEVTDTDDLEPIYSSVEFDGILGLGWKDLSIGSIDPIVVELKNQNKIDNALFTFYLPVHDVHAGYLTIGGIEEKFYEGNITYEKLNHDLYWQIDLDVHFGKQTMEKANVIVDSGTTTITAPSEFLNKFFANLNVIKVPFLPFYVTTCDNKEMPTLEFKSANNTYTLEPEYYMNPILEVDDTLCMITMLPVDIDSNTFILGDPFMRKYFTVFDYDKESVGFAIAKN
T2 sequence (P07339 65-412): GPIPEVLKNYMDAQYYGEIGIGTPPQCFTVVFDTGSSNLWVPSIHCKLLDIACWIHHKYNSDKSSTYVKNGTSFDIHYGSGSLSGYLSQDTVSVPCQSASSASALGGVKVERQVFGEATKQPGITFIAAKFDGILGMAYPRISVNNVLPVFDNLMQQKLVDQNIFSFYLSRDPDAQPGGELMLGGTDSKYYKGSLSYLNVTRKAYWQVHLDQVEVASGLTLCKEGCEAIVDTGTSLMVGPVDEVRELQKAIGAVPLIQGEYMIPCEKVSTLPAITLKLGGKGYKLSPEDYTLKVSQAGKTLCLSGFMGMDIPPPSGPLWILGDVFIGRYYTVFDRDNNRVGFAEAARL
Chain of PfPM1 (P39898 124-452): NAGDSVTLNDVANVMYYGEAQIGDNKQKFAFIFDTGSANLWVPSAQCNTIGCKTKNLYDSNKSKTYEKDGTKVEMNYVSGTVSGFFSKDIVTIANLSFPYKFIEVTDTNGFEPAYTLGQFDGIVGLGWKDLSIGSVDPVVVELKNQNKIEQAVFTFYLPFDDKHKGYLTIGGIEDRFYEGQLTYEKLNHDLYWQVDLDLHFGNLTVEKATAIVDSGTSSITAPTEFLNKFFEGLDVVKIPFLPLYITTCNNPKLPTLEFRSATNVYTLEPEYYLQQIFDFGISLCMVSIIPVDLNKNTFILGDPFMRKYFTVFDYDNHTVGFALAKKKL

| Compound | Ki [1] [nM] | Ki [2] [nM] | also measured |
| --- | --- | --- | --- |
| CC(C)C[C@@H](CN[C@@H](CC(C)C)C(=O)N[C@@H](CCC(N)=O)C(=O)N[C@@H](Cc1ccccc1)C(=O)O)NC(=O)[C@H](CO)NC(=O)[C@H](Cc1ccccc1)NC(=O)[C@@H]1CCCN1C(=O)[C@@H](N)CCCCN [Compound 2, KPFSLΨLQF] | 767 ± 81 |  |  |
| CC(C)C[C@H](NC(=O)[C@@H]1CCCN1C(=O)[C@@H](N)CCCCN)C(=O)N[C@@H](CCC(=O)O)C(=O)N[C@H](CN[C@@H](Cc1ccc(O)cc1)C(=O)N[C@@H](CCCNC(=N)N)C(=O)N[C@H](C(=O)O)C(C)C)Cc1ccccc1 [Compound 6, KPLEFΨYRV] | 3.2 ± 0.5 | 0.342 ± 0.047 |  |
| CC(C)C[C@@H](CN[C@@H](C)C(=O)N[C@@H](Cc1c[nH]c2ccccc12)C(=O)N[C@H](C(=O)O)[C@@H](C)O)NC(=O)[C@H](CCC(=O)O)NC(=O)[C@H](Cc1ccccc1)NC(=O)[C@@H]1CCCN1C(=O)[C@@H](N)CCCCN [Compound 7, KPFELΨAWT] | > 20000 | 9000 |  |
| N=C(N)NCCC[C@H](NC[C@H](Cc1ccccc1)NC(=O)[C@H](CCC(=O)O)NC(=O)[C@H](Cc1ccc(O)cc1)NC(=O)[C@@H]1CCCN1C(=O)[C@@H](N)CCCCN)C(=O)N[C@@H](CCC(N)=O)C(=O)N[C@@H](Cc1ccccc1)C(=O)O [Compound 1, KPYEFΨRQF] |  |  | selectivity to PbPM4 and the four plasmepsin 4 homologs of human malaria parasites versus hcatD ([3]; from K i values): > 10 fold; Ki ([3]; proPbPM4 pre-incubated in 100 mM sodium citrate pH 5.0, 37°C, 5 min, read-out: Dissociation Constant (K i) PbPM4): 3900 nM; Ki [4]: > 100000 nM; Ki [5]: 426 ± 44 nM; Ki [6]: 41000 nM |
| CCCC[C@@H](CN[C@@H](CC(C)C)C(=O)N[C@@H](CCC(N)=O)C(=O)N[C@H](C(=O)O)[C@@H](C)CC)NC(=O)[C@H](CO)NC(=O)[C@H](CCCC)NC(=O)[C@@H]1CCCN1C(=O)[C@@H](N)CCCCN [Compound 3, KPnLSnLΨLQI] | 187 ± 29 | 160 ± 26 |  |
| Lys-Pro-Ile-Leu-Phe*Nph-Arg-Leu [K-P-I-L-F*Nph-R-L] |  |  | K m [7]: 2.1 ± 0.2 µM; k cat [7]: 34.9 ± 5.7 s⁻¹; k cat/K m [7]: 1.65e+07 ± 2.9e+06 M⁻¹ s⁻¹ |
| CC(C)CC(=O)N[C@H](C(=O)N[C@H](C(=O)N[C@@H](CC(C)C)[C@@H](O)CC(=O)N[C@@H](C)C(=O)N[C@@H](CC(C)C)[C@@H](O)CC(=O)O)C(C)C)C(C)C [pepstatin A, reference compound] (Isovaleryl-VV[Sta]A[Sta]-OH) |  |  | Ki ([3]; mature PbPM4, sodium citrate pH 5.0, 37°C, 5 min pre-equilibrium, read-out: K i): 0.11 ± 0.02 nM |
| CC(C)C[C@H](NC(=O)[C@@H]1CCCN1C(=O)[C@@H](N)CCCCN)C(=O)N[C@@H](CCC(=O)O)C(=O)N[C@H](CN[C@@H](Cc1ccccc1)C(=O)N[C@@H](CCCNC(=N)N)C(=O)N[C@H](C(=O)O)C(C)C)Cc1ccccc1 [Compound 5, KPLEFΨFRV] | 3.2 ± 0.5 | 3.7 ± 0.6 |  |
| CC(C)[C@H](NC(=O)[C@@H]1CCCN1C(=O)[C@@H](N)CCCCN)C(=O)N[C@@H](CCC(=O)O)C(=O)N[C@H](CN[C@@H](CCCNC(=N)N)C(=O)N[C@@H](CCC(N)=O)C(=O)N[C@H](C(=O)O)[C@@H](C)O)Cc1ccccc1 [Compound 4, KPVEFΨRQT] | 39 ± 4.5 | 10.3 ± 1.3 |  |
